Values after ≈ are worked out from the molar mass of the structure shown. Read-outs that look alike come from different tables or passages of the source.
Tests used:
[1] = test system: Staphylococcus aureus bacteria (ATCC 9604 SV); assay: IC50 determination, growth inhibition by turbidity at 550 nm; type: cell-based; details: Staphylococcus aureus ATCC 9604 SV, turbidity at 550 nm after 3-5 h at 37° C.
Method: (§1) Minimal inhibitory concentrations (MICs) for Staphylococcus aureus bacteria (ATCC 9604 SV) were determined by broth microdilution methodology following National Committee for Clinical Laboratory Standards. In the MIC determinations, the compounds were incorporated into Mueller-Hinton broth (Becton Dickinson Microbiology systems, Cockeyville, Md.) at a series of concentrations. After the test organism was grown overnight in TB broth, the broths were adjusted to the turbidity equivalent to 0.05 McFarland standard. The suspensions were diluted twenty-fold into the broth containing the compounds. […] In the IC50 determination, the method was modified to allow the rapid growth of the organisms. The inoculum suspensions were adjusted to 0.1 McFarland standard and then diluted two-fold into the wells containing TB broth and the compounds. After three to five hours incubation at 37° C., the turbidity was measured at 550 nm and inhibitory activity was defined as the concentration of antimicrobial agent that inhibits 50% growth of the organism in the microdilution wells.

[2] = test system: methicillin-resistant Staphylococcus aureus (ATCC 33591); assay: In vivo mouse intraperitoneal infection, mortality and % survivors over 7 days; details: MRSA ATCC 33591 i.p., ICR mice; for In Vivo, double dose (% of mice rescued): 1 and 5 h post inoculation; for In Vivo, single dose (% of mice rescued): single dose 1 h post inoculation
Method: Ten male ICR mice weighing 20 grams were inoculated intraperitoneally with an LD90-100 dose (2-3×10^7 CFU/mouse) of methicillin-resistant Staphylococcus aureus (ATCC 33591) in brain-heart infusion broth containing 5% mucin. Compounds were suspended in a vehicle containing 1% cremophore EL (Sigma) in normal saline and were administered subcutaneously in a volume of 0.4 ml per mouse either 1 hour following bacterial inoculation or 1 and 5 hours post inoculation. Animals receiving two doses of drug were injected subcutaneously in the hindquarter one hour post-innoculation and in the neck area, 5 hours post-innoculation. Deaths occurring during the subsequent 7 days are recorded. Mortality and % survivor endpoints are calculated.

[3] = test system: Staphylococcus aureus bacteria (ATCC 9604 SV); assay: Minimal inhibitory concentration (MIC), broth microdilution; type: cell-based; details: 24 h at 37° C.
Method: as §1

[4] = ATCC9604, Staphylococcus aureus ATCC 9604 SV, read-out: MIC
[5] = Staphylococcus aureus ATCC 9604 SV

| SMILES | IC50 [1] | MIC [3, 5] | further results |
| --- | --- | --- | --- |
| O=C1CC(c2ccccc2)=NN1c1cc(Cl)cc(Cl)c1 [Compound 1, 2-(3,5-Dichloro-phenyl)-5-phenyl-2,4-dihydro-pyrazol-3-one] | – | – | IC50 ([1]; ATCC9604): 540 nM; In Vivo, double dose (% of mice rescued) ([2]; 2 × 2 mg/kg s.c.): 0% @ 2 × 2 mg/kg; In Vivo, double dose (% of mice rescued) ([2]; 2 × 20 mg/kg s.c.): 25% @ 2 × 20 mg/kg; MIC [3, 4]: 0.122 µg/mL (≈ 0.4 µM) |
| O=C1CC(c2ccccc2)=NN1c1ccc(Cl)c(Cl)c1 [Compound 2] | 449 nM | 1.91 µg/mL (≈ 6.26 µM) | In Vivo, double dose (% of mice rescued) ([2]; 2 × 2 mg/kg s.c.): 0% @ 2 × 2 mg/kg; In Vivo, double dose (% of mice rescued) ([2]; 2 × 20 mg/kg s.c.): 0% @ 2 × 20 mg/kg |
| COc1ccc(C=C2C(=O)N(c3cc(Cl)cc(Cl)c3)N=C2c2ccccc2)cc1 [Compound 3, 2-(3,5-Dichloro-phenyl)-4-(4-methoxy-benzylidene)-5-phenyl-2,4-dihydro-pyrazol-3-one] | – | – | IC50 ([1]; ATCC9604): 985 nM; In Vivo, double dose (% of mice rescued) ([2]; 2 × 2 mg/kg s.c.): 25% @ 2 × 2 mg/kg; In Vivo, double dose (% of mice rescued) ([2]; 2 × 20 mg/kg s.c.): 25% @ 2 × 20 mg/kg; MIC [3, 4]: 1.3 µg/mL (≈ 3.07 µM) |
| CC(C)(C)c1cc(NC(=O)Nc2cc(Cl)cc(Cl)c2)n(-c2ccc(C(F)(F)F)cc2)n1 [Compound 73] | 83 nM | – | In Vivo, single dose (% of mice rescued) ([2]; 2 mg/kg s.c.): 0% @ 2 mg/kg; In Vivo, single dose (% of mice rescued) ([2]; 20 mg/kg s.c.): 0% @ 20 mg/kg |
| O=C(Nc1cc(C(F)(F)F)cc(C(F)(F)F)c1)Nc1cc(Cc2ccccc2)nn1-c1ccc(C(F)(F)F)cc1 [Compound 74] | 127 nM | 3.43 µg/mL (≈ 5.99 µM) | – |
| O=C(Nc1ccc(Cl)c(C(F)(F)F)c1)Nc1cc(-c2ccccc2)nn1-c1ccc(C(F)(F)F)cc1 [Compound 75] | 96 nM | <0.787 µg/mL | – |
| O=C(Nc1cc(C(F)(F)F)cc(C(F)(F)F)c1)Nc1cc(-c2ccc(CN3CCOCC3)cc2)nn1-c1ccc(C(F)(F)F)cc1 [Compound 88] | 1480 nM | >32.9 µg/mL | – |
| CN(C)Cc1cc(NC(=O)Nc2cc(C(F)(F)F)cc(C(F)(F)F)c2)n(-c2ccc(C(F)(F)F)cc2)n1 [Compound 90] | 4400 nM | 13.5 µg/mL (≈ 25 µM) | – |
| O=C(Nc1cc(C(F)(F)F)cc(C(F)(F)F)c1)Nc1c(Br)cnn1-c1ccc(Br)cc1 [Compound 97, 1-(3,5-Bis-trifluoromethyl-phenyl)-3-[4-bromo-2-(4-bromo-phenyl)-2H-pyrazol-3-yl]-urea] | – | – | IC50 ([1]; ATCC9604): 107 nM; MIC [3, 4]: > 29.3 µg/mL |
| O=C(Nc1cc(Cl)cc(Cl)c1)Nc1c2c(nn1-c1ccc(Br)cc1)CCCC2 [Compound 105] | 3210 nM | >24.0 µg/mL | – |
| O=C(Nc1cc(C(F)(F)F)cc(C(F)(F)F)c1)Nc1c2c(nn1-c1ccc(Br)cc1)CCCC2 [Compound 106] | 459 nM | >27.4 µg/mL | – |
| Cc1cc(-c2cc(NC(=O)Nc3cc(C(F)(F)F)cc(C(F)(F)F)c3)n(-c3ccc(Br)cc3)n2)no1 [Compound 115] | 402 nM | 1.72 µg/mL (≈ 3 µM) | – |
| O=C(Nc1cc(Cl)cc(Cl)c1)Nc1cc(-c2ccncc2)nn1-c1ccc(Br)cc1 [Compound 118] | 239 nM | 0.755 µg/mL (≈ 1.5 µM) | – |
| O=C(Nc1cc(C(F)(F)F)cc(C(F)(F)F)c1)Nc1cc(-c2ccncc2)nn1-c1ccc(Br)cc1 [Compound 119] | 163 nM | 0.855 µg/mL (≈ 1.5 µM) | – |
| Cc1cnc(NC(=O)Nc2cc(C(F)(F)F)cc(C(F)(F)F)c2)s1 [Compound 122] | 2720 nM | >18.5 µg/mL | – |
| Cc1nc(NC(=O)Nc2cc(C(F)(F)F)cc(C(F)(F)F)c2)sc1C [Compound 123] | 520 nM | 1.15 µg/mL (≈ 3 µM) | – |
| C=CCCc1csc(NC(=O)Nc2cc(C(F)(F)F)cc(C(F)(F)F)c2)n1 [Compound 126] | 612 nM | 10.2 µg/mL (≈ 24.9 µM) | – |
| O=C(O)Cc1csc(NC(=O)Nc2cc(C(F)(F)F)cc(C(F)(F)F)c2)n1 [Compound 127] | 29300 nM | >20.7 µg/mL | – |
| CCOC(=O)c1nc(NC(=O)Nc2cc(C(F)(F)F)cc(C(F)(F)F)c2)sc1C [Compound 128] | 510 nM | – | In Vivo, single dose (% of mice rescued) ([2]; 2 mg/kg s.c.): 0% @ 2 mg/kg; In Vivo, single dose (% of mice rescued) ([2]; 20 mg/kg s.c.): 0% @ 20 mg/kg |
| CCOC(=O)C(=O)c1csc(NC(=O)Nc2cc(C(F)(F)F)cc(C(F)(F)F)c2)n1 [Compound 129] | 944 nM | 11.4 µg/mL (≈ 25 µM) | – |
| O=C(Nc1cc(C(F)(F)F)cc(C(F)(F)F)c1)Nc1nc(Cc2ccccc2)cs1 [Compound 130] | 275 nM | 1.34 µg/mL (≈ 3.01 µM) | – |
| O=C(Nc1cc(C(F)(F)F)cc(C(F)(F)F)c1)Nc1nc(CCc2ccccc2)cs1 [Compound 131] | 367 nM | 23.4 µg/mL (≈ 50.9 µM) | – |
| O=C(Nc1cc(C(F)(F)F)cc(C(F)(F)F)c1)Nc1nc(-c2cccc(F)c2)cs1 [Compound 135] | 107 nM | 1.35 µg/mL (≈ 3 µM) | – |
| O=C(Nc1cc(C(F)(F)F)cc(C(F)(F)F)c1)Nc1nc(-c2ccc(F)cc2)cs1 [Compound 139] | 100 nM | – | In Vivo, single dose (% of mice rescued) ([2]; 2 mg/kg s.c.): 0% @ 2 mg/kg; In Vivo, single dose (% of mice rescued) ([2]; 20 mg/kg s.c.): 0% @ 20 mg/kg |

| SMILES | IC50 [1] | MIC [3, 5] | further results |
| --- | --- | --- | --- |
| O=C(Nc1cc(C(F)(F)F)cc(C(F)(F)F)c1)Nc1nc(-c2ccc(OC(F)F)cc2)cs1 [Compound 142] | 235 nM | 6.22 µg/mL (≈ 12.5 µM) | – |
| O=C(Nc1cc(C(F)(F)F)cc(C(F)(F)F)c1)Nc1nc(-c2ccc(C(F)(F)F)cc2)cs1 [Compound 143] | 129 nM | 1.40 µg/mL (≈ 2.8 µM) | – |
| O=C(Nc1cc(C(F)(F)F)cc(C(F)(F)F)c1)Nc1nc(-c2ccc(CO)cc2)cs1 [Compound 145] | 3740 nM | >23.1 µg/mL | – |
| O=C(Nc1cc(C(F)(F)F)cc(C(F)(F)F)c1)Nc1nc(-c2ccc(CCO)cc2)cs1 [Compound 146] | 1610 nM | 2.71 µg/mL (≈ 5.7 µM) | – |
| O=C(Nc1cc(C(F)(F)F)cc(C(F)(F)F)c1)Nc1nc(-c2ccc(Cl)c(Cl)c2)cs1 [Compound 150] | 410 nM | – | – |
| O=C(Nc1cc(C(F)(F)F)cc(C(F)(F)F)c1)Nc1nc(-c2ccc3ccccc3c2)cs1 [Compound 153] | 1450 nM | – | – |
| O=C(Nc1cc(C(F)(F)F)cc(C(F)(F)F)c1)Nc1nc(-c2cc(CO)no2)cs1 [Compound 154] | 20100 nM | >22.6 µg/mL | – |
| O=C(Nc1cc(C(F)(F)F)cc(C(F)(F)F)c1)Nc1nc(-c2cccs2)cs1 [Compound 155] | 259 nM | 1.31 µg/mL (≈ 3 µM) | – |
| O=C(Nc1cc(C(F)(F)F)cc(C(F)(F)F)c1)Nc1nc2ccccc2s1 [Compound 156] | 295 nM | 1.22 µg/mL (≈ 3.01 µM) | – |
| Cc1c(-c2csc(NC(=O)Nc3cc(C(F)(F)F)cc(C(F)(F)F)c3)n2)sc2ccc(Cl)cc12 [Compound 157] | 332 nM | – | – |
| O=C(Nc1cccc(Br)c1)Nc1nc(-c2ccc(Br)cc2)cs1 [Compound 159] | 543 nM | – | – |
| O=C(Nc1ccc(OC(F)F)cc1)Nc1nc(-c2ccc(F)c(F)c2)cs1 [Compound 160] | 461 nM | 1.19 µg/mL (≈ 2.99 µM) | – |
| O=C(Nc1ccc(SC(F)(F)F)cc1)Nc1nc(-c2ccc(F)c(F)c2)cs1 [Compound 161] | 134 nM | <0.647 µg/mL | – |
| O=C(Nc1nc(-c2ccc(Cl)cc2)cs1)Nc1ccc(Br)cc1C(F)(F)F [Compound 162] | 4710 nM | – | – |
| O=C(Nc1cc(Cl)cc(Cl)c1)Nc1nc(-c2ccc(Cl)cc2)cs1 [Compound 163] | 180 nM | – | – |
| O=C(Nc1cc(Cl)cc(Cl)c1)Nc1nc(-c2ccc(F)c(F)c2)cs1 [Compound 164] | 2650 nM | – | – |
| O=C(Nc1ccc(F)c(C(F)(F)F)c1)Nc1nc(-c2cccc(F)c2)cs1 [Compound 165] | 364 nM | 2.40 µg/mL (≈ 6.01 µM) | – |
| O=C(Nc1ccc(F)c(C(F)(F)F)c1)Nc1nc(-c2ccc(Br)cc2)cs1 [Compound 166] | 205 nM | – | – |
| O=C(Nc1ccc(F)c(C(F)(F)F)c1)Nc1nc(-c2ccc(Cl)cc2)cs1 [Compound 167] | 175 nM | – | – |
| Cc1cc(-c2csc(NC(=O)Nc3ccc(F)c(C(F)(F)F)c3)n2)ccc1F [Compound 169] | 661 nM | >20.7 µg/mL | – |
| O=C(Nc1nc(-c2ccc(Cl)cc2)cs1)Nc1cc(Cl)c(Cl)cc1Cl [Compound 170] | 910 nM | >21.7 µg/mL | – |
| O=C(Nc1nc(-c2ccc(Cl)cc2)cs1)Nc1c(Cl)cc(Cl)cc1Cl [Compound 171] | 927 nM | – | – |
| O=C(NCc1ccc(Cl)c(Cl)c1)Nc1nc(-c2ccc(F)c(F)c2)cs1 [Compound 182] | 2850 nM | 5.18 µg/mL (≈ 12.5 µM) | – |
| CC(NC(=O)Nc1nc(-c2ccc(Br)cc2)cs1)C(O)c1ccccc1 (centres unmarked) [Compound 183] | 6380 nM | 10.8 µg/mL (≈ 25 µM) | – |

From patent publication US6410533B1, “Antibacterial compounds” (Genzyme Corporation, priority 2000, dated 2002)
